# Measured values as given in patent US9108973B2, “3,5-disubstituted alkynylbenzene compound and salt thereof” (Taiho Pharmaceutical Co., Ltd., priority 2012, dated 2015).
# pIC50: −log10 of the molar value. Where two headings read alike, the source gives them in different places.
# Molecular target: purified recombinant human FGFR2 protein (Homo sapiens (Human), UniProt P21802)
# Test: Measurement of inhibitory effect on FGFR2 kinase activity
# Format: biochemical
# Chain of purified recombinant human FGFR2 protein (P21802 22-821): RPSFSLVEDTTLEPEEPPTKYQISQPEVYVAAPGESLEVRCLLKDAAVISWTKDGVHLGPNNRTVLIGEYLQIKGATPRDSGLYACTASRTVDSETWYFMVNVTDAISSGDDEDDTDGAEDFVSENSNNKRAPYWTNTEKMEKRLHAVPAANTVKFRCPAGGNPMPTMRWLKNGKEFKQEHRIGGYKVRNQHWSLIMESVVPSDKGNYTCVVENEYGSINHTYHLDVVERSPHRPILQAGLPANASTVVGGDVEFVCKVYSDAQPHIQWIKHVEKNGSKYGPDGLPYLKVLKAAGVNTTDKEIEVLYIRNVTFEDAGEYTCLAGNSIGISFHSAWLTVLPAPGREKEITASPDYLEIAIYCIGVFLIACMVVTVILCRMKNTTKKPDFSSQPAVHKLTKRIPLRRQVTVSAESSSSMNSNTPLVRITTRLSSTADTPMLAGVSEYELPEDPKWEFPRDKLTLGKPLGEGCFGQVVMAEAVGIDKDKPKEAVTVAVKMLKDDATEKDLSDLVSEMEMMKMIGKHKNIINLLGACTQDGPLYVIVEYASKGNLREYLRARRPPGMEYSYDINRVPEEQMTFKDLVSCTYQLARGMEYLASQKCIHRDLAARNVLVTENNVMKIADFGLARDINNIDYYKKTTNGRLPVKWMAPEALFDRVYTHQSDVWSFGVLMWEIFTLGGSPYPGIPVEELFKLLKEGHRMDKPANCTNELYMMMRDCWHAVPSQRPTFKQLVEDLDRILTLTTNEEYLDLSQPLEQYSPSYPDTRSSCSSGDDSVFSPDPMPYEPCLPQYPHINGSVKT
"pIC50 (FGFR2 kinase, FL-Peptide 22 substrate, ATP 75 μM, 25° C. for 120 minutes)",SMILES,pIC50
–,"C=CC(=O)N1C[C@@H](n2cc(C#Cc3cc(OC)cc(OC)c3)c3c(N)ncnc32)C[C@H]1C(=O)OC [Ex. Compound 66, (2S,4S)-methyl 1-acryloyl-4-(4-amino-5-((3,5-dimethoxyphenyl)ethynyl)-7H-pyrrolo[2,3-d]pyrimidin-7-yl)pyrrolidine-2-carboxylate]",> 9.52
< 5.00,"CC(C)c1cc(C#Cc2nn([C@H]3CCN(C(=O)/C=C/CN(C)C)C3)c3ncnc(N)c23)cc(C(C)C)c1 [Ref. Ex. Compound 4, (S)-1-(3-(4-amino-3-((3,5-diisopropylphenyl)ethynyl)-1H-pyrazolo[3,4-d]pyrimidin-1-yl)pyrrolidin-1-yl)-4-(dimethylamino)but-2-en-1-one]",–
